Earlier results as cited in US20250000865A1, “COMPOUND FOR REDUCING URIC ACID LEVELS” (NEWSOARA BIOPHARMA CO., LTD., priority 2021, published 2025).

Settings: cited from earlier work

CCc1oc2ccccc2c1C(=O)c1cc(Br)c(O)c(Br)c1 [benbromarone, Benzbromarone]
sUA target level reached (after long-term treatment): < 6 mg/dL
side effects (in vivo): hepatotoxicity and acute liver failure
